Assay results: patent US12186283B2, “Bismuth-thiol compositions and methods of use” (Microbion Corporation, priority 2018, dated 2025)
In brackets after ≈: the same amount, converted by molar mass.

Tests used:
S. aureus ATCC 29213 [1] = experiment: Broth microdilution MIC, ATCC QC organism (Example 12); type: cell-based, Staphylococcus aureus; conditions: S. aureus ATCC 29213, QC organism
Procedure: The in vitro activity of BisEDT and two additional bismuth-thiol investigational agents (MB-2B and MB-6) was determined for isolates of Escherichia coli, Klebsiella pneumoniae, Pseudomonas aeruginosa and Acinetobacter baumannii characterized for extended-spectrum β-lactamases (ESBL) and/or carbapenem resistance. In addition, vancomycin-intermediate Staphylococcus aureus (VISA) were evaluated. The majority of the isolates tested in the current study were multidrug-resistant (MDR) as defined by resistance to at least three different antibiotic classes. Susceptibility to the investigational compounds and relevant comparators was determined by broth microdilution conducted in accordance with guidelines from the Clinical and Laboratory Standards Institute (CLSI; 2,3).

[2] = system: vancomycin-intermediate Staphylococcus aureus (VISA); experiment: Broth microdilution MIC (Example 12)
S. aureus ATCC 29213 [3] = conditions: S. aureus ATCC 29213, QC organism; cited from earlier work
[4] = Staphylococcus aureus NRS 1 (hVISA)
[5] = Staphylococcus aureus NRS 24 (hVISA)

`CN[C@H](CC(C)C)C(=O)N[C@H]1C(=O)N[C@@H](CC(N)=O)C(=O)N[C@H]2C(=O)N[C@H]3C(=O)N[C@H](C(=O)N[C@H](C(=O)O)c4cc(O)cc(O)c4-c4cc3ccc4O)[C@H](O)c3ccc(c(Cl)c3)Oc3cc2cc(c3O[C@@H]2O[C@H](CO)[C@@H](O)[C@H](O)[C@H]2O[C@H]2C[C@](C)(N)[C@H](O)[C@H](C)O2)Oc2ccc(cc2Cl)[C@H]1O` [VAN] gave an MIC (S. aureus ATCC 29213 [1]) of 0.5 µg/mL (≈ 0.345 µM), an MIC [2, 4] of 4 µg/mL (≈ 2.76 µM) and an MIC ([2]; Staphylococcus aureus NRS 2) of 0.5 µg/mL (≈ 0.345 µM). The MIC ([2]; Staphylococcus aureus NRS 3) was 8 µg/mL (≈ 5.52 µM), the MIC ([2]; Staphylococcus aureus NRS 4) was 4 µg/mL (≈ 2.76 µM) and the MIC ([2]; Staphylococcus aureus NRS 13) was 2 µg/mL (≈ 1.38 µM). The MIC ([2]; Staphylococcus aureus NRS 18) was 4 µg/mL (≈ 2.76 µM), the MIC ([2]; Staphylococcus aureus NRS 22) was 4 µg/mL (≈ 2.76 µM) and the MIC [2, 5] was 2 µg/mL (≈ 1.38 µM). The MIC ([2]; Staphylococcus aureus NRS 27) was 2 µg/mL (≈ 1.38 µM) and the “MIC, QC range” value (S. aureus ATCC 29213 [3]) was “(0.5-2) μg/mL”.
`CC(=O)NC[C@H]1CN(c2ccc(N3CCOCC3)c(F)c2)C(=O)O1` [LZD] showed an MIC (S. aureus ATCC 29213 [1]) of 4 µg/mL (≈ 11.9 µM), an MIC [2, 4] of 1 µg/mL (≈ 2.96 µM) and an MIC ([2]; Staphylococcus aureus NRS 2) of 4 µg/mL (≈ 11.9 µM). The MIC ([2]; Staphylococcus aureus NRS 3) was 1 µg/mL (≈ 2.96 µM), the MIC ([2]; Staphylococcus aureus NRS 4) was 1 µg/mL (≈ 2.96 µM) and the MIC ([2]; Staphylococcus aureus NRS 13) was 2 µg/mL (≈ 5.93 µM). For the same compound, the MIC ([2]; Staphylococcus aureus NRS 18) was 1 µg/mL (≈ 2.96 µM), the MIC ([2]; Staphylococcus aureus NRS 22) was 1 µg/mL (≈ 2.96 µM) and the MIC [2, 5] was 2 µg/mL (≈ 5.93 µM). The MIC ([2]; Staphylococcus aureus NRS 27) was 2 µg/mL (≈ 5.93 µM) and the “MIC, QC range” value (S. aureus ATCC 29213 [3]) was “(1-4) μg/mL”.
`CCC[C@@H]1C[C@@H](C(=O)N[C@@H]([C@H]2O[C@H](SC)[C@H](O)[C@@H](O)[C@H]2O)[C@H](C)Cl)N(C)C1` [CLI] gave an MIC (S. aureus ATCC 29213 [1]) of 0.25 µg/mL (≈ 0.588 µM), an MIC [2, 4] greater than 8 µg/mL and an MIC ([2]; Staphylococcus aureus NRS 2) greater than 8 µg/mL. The MIC ([2]; Staphylococcus aureus NRS 3) was greater than 8 µg/mL, the MIC ([2]; Staphylococcus aureus NRS 4) was greater than 8 µg/mL and the MIC ([2]; Staphylococcus aureus NRS 13) was 0.06 µg/mL (≈ 0.141 µM). The MIC ([2]; Staphylococcus aureus NRS 18) was greater than 8 µg/mL, the MIC ([2]; Staphylococcus aureus NRS 22) was greater than 8 µg/mL and the MIC [2, 5] was greater than 8 µg/mL. For the same compound, the MIC ([2]; Staphylococcus aureus NRS 27) was greater than 8 µg/mL and the “MIC, QC range” value (S. aureus ATCC 29213 [3]) was “(0.06-0.25) μg/mL”.
